Values belong to the compound of their own block, whether it stands above or below them.
Assay: solvent given as SMILES

absorption maximum (in ClCCl): 324 nm
Structure (SMILES): Cc1ccc(-c2cnc3ccc4ccccc4n23)cc1

absorption maximum (in ClCCl): 430 nm
Structure (SMILES): CN(C)c1ccc(N2c3sc4ccccc4c3Sc3c2sc2ccccc32)cc1

absorption maximum (in CS(C)=O): 350 nm
Structure (SMILES): c1ccc2c(-c3nc4sc5ccccc5c4s3)cccc2c1

absorption maximum (in CS(C)=O): 284 nm
Structure (SMILES): COC(=O)[C@@H]1C(=O)Oc2ccccc2[C@H]1c1c[nH]c2ccccc12

absorption maximum (in CCCCCCC): 400 nm
Structure (SMILES): c1ccc2cc3c(cc2c1)-c1cccc2c1c-3cc1ccccc12

absorption maximum (in ClCCl): 495 nm
Structure (SMILES): COc1ccc(-c2c3ccccc3c(-c3ccc(OC)cc3)c3cc4ccccc4cc23)cc1

absorption maximum (in ClC(Cl)Cl): 295 nm
Structure (SMILES): O=C1OC(=O)[C@H]2[C@@H]1[C@@H]1C[C@H]2c2c1c(-c1ccccc1)c1ccccc1c2-c1ccccc1

absorption maximum (in ClCCl): 518 nm
Structure (SMILES): Brc1cc2nc3cc4c5c(cccc5c3nc2cc1Br)C(c1ccccc1)=C(c1ccccc1)O4

absorption maximum (in C1COCCO1): 400 nm
Structure (SMILES): N#Cc1ccc(/C=C2\C=C(c3ccccc3)OC2=O)cc1

absorption maximum (in ClCCl): 323 nm
Structure (SMILES): CCOC(=O)c1c(-c2cc3ccccc3oc2=O)nn(-c2ccc(OC)cc2)c1C(=O)OCC

absorption maximum (in CC1CCCO1): 307 nm
Structure (SMILES): c1ccc2c(c1)-c1ccccc1C21c2ccccc2-c2ccncc21

absorption maximum (in C1COCCO1): 438 nm
Structure (SMILES): COC(=O)c1ccc(/C=C2\C=C(c3ccc(C#N)cc3)N(CC(C)C)C2=O)cc1

absorption maximum (in ClCCl): 360 nm
Structure (SMILES): O=S1(=O)C2=C(c3ccccc31)C1(c3ccccc32)c2ccccc2-c2sc3ccccc3c21 (stereo not drawn)

absorption maximum (in C1CCCCC1): 307 nm
Structure (SMILES): COC(=O)c1nc(Br)c(-c2ccccc2)o1

absorption maximum (in CCO): 600 nm
absorption maximum (in O): 590 nm
Structure (SMILES): CC/[NH+]=c1\cc2oc3cc(NCCC(=O)NCC(=O)OC)c4ccccc4c3nc-2cc1C

absorption maximum (in CC#N): 234 nm
absorption maximum (in CCCCCC): 240 nm
Structure (SMILES): Cc1ccc(C)n1-c1ccccc1

The next lines start with the compound.

Structure (SMILES): CC(=O)C1=C(O)CC2Oc3c(C(C)=O)c(O)c(C)c(O)c3C2(C)C1=O (stereo not drawn)
absorption maximum (in ClC(Cl)Cl): 340 nm

Structure (SMILES): CC1(C)C(/C=C/C2=C(Oc3ccc(CCN=C=S)cc3Br)C(=C/C=C3/N(CCCS(=O)(=O)[O-])c4ccccc4C3(C)C)/CCC2)=[N+](CCCS(=O)(=O)[O-])c2ccccc21
absorption maximum (in CO): 768 nm

Structure (SMILES): Cc1cc(=O)oc2c1cc(Br)c1occ(C)c12
absorption maximum (in C1CCCCC1): 333 nm
absorption maximum (in CCO): 330 nm

Structure (SMILES): Cc1cc(C)c(B2c3cc(C(C)(C)C)cc4ccc5ccc6cc(C(C)(C)C)cc2c6c5c34)c(C)c1
absorption maximum (in C1CCCCC1): 427 nm

Structure (SMILES): C=CC(=O)Oc1ccc2cc(C=C)c(=O)oc2c1
absorption maximum (in CC#N): 320 nm

Structure (SMILES): CCn1c2ccccc2c2cc(/C=C/c3cc(/C=C/c4ccc5c(c4)c4ccccc4n5CC)ncn3)ccc21
absorption maximum (in C1CCOC1): 397 nm
absorption maximum (in CCOC(C)=O): 395 nm
absorption maximum (in CN(C)C=O): 405 nm
absorption maximum (in Cc1ccccc1): 397 nm
absorption maximum (in ClCCl): 405 nm

Structure (SMILES): COc1cc(N(CC(=O)[O-])CC(=O)[O-])c2nc(COc3cc(C)ccc3N(CC(=O)[O-])CC(=O)[O-])ccc2c1
absorption maximum (in O): 356 nm

Structure (SMILES): c1ccc(-n2c3c(c4c2-c2ccccc2C42c4ccccc4-c4ccccc42)C2(c4ccccc4-c4ccccc42)c2ccccc2-3)cc1
absorption maximum (in C1CCOC1): 375 nm

Structure (SMILES): COc1ccc2c3ccc(OC)cc3c3cc4c(C)cc(=O)oc4cc3c2c1
absorption maximum (in ClC(Cl)Cl): 365 nm

Structure (SMILES): C[n+]1ccc(-c2cc[n+](C)cc2)cc1
absorption maximum (in CC#N): 260 nm

Structure (SMILES): CC(C)(C)c1ccc(C(C)(C)C)c(N2C(=O)c3cccc4c(-c5ccc(-c6ccc([N+](=O)[O-])cc6)s5)ccc(c34)C2=O)c1
absorption maximum (in CO): 393 nm
absorption maximum (in CS(C)=O): 400 nm
absorption maximum (in Cc1ccccc1): 392 nm

Structure (SMILES): CC(C)[Si](C#Cc1c2cc3ccccc3cc2c(C#C[Si](C(C)C)(C(C)C)C(C)C)c2nc3c(nc12)C1c2ccccc2C3c2ccccc21)(C(C)C)C(C)C
absorption maximum (in CCCCCC): 542 nm

Structure (SMILES): Cc1ccc(-n2c(-c3ccccc3[NH-])[nH+]c3c4ccccc4c4ccccc4c32)cc1
absorption maximum (in Cc1ccccc1): 363 nm

Structure (SMILES): CCOC(=O)CCCCCn1c2ccc(C)cc2c(=O)c2cc3c(cc21)c(=O)c1cc(C)ccc1n3CCCCCC(=O)OCC
absorption maximum (in CO): 540 nm

Structure (SMILES): c1cc2c3c(cccc3c1)-c1c-2c2c3ccccc3c3ccc4c5c6c(c7c8ccccc8c8ccc9c%10c%11c(c%12c%13ccccc%13c%13ccc%14c1c1c2c3c4c2c1c1c%14c%13c%12c%10c1c1c9c8c7c5c21)-c1cccc2cccc-%11c12)-c1cccc2cccc-6c12
absorption maximum (in C1CCOC1): 475 nm

Structure (SMILES): c1ccc(-c2nc(-c3ccc(N4CCCC4)cc3)cc(-c3ccc4ccccc4c3)n2)cc1
absorption maximum (in ClC(Cl)Cl): 430 nm

Structure (SMILES): N#Cc1c(-n2c3ccc(Cl)cc3c3cc(Cl)ccc32)c(C#N)c(-n2c3ccc(Cl)cc3c3cc(Cl)ccc32)c(-n2c3ccc(Cl)cc3c3cc(Cl)ccc32)c1-n1c2ccc(Cl)cc2c2cc(Cl)ccc21
absorption maximum (in Cc1ccccc1): 384 nm

Structure (SMILES): Cc1c2ccncc2c(C)c2c1[nH]c1ccccc12
absorption maximum (in C1CCCCC1): 290 nm
absorption maximum (in C1CCOC1): 293.3 nm
absorption maximum (in C1COCCO1): 292.5 nm
absorption maximum (in CC#N): 291.5 nm
absorption maximum (in CC(C)(C)O): 294.5 nm
absorption maximum (in CC(C)O): 294.5 nm
absorption maximum (in CCC(C)(C)O): 294.5 nm
absorption maximum (in CCCCCC): 289.5 nm
absorption maximum (in CCCCO): 295 nm
absorption maximum (in CCO): 294 nm
absorption maximum (in CCOC(C)=O): 291.5 nm
absorption maximum (in CCOCC): 291.5 nm
absorption maximum (in CN(C)C=O): 293.5 nm
absorption maximum (in CO): 294 nm
absorption maximum (in CS(C)=O): 295 nm
absorption maximum (in Cc1ccccc1): 293 nm

Structure (SMILES): COc1cc2c(cc1-c1ccsc1)Cc1c3c(c4c(c1-2)-c1cc(OC)c(-c2ccsc2)cc1C4)C(=O)N(CCC(C)C)C3=O
absorption maximum (in C1CCOC1): 417 nm

Structure (SMILES): CCCCCCCCCCn1c(-c2cc(-c3nc4ccc(C)cc4n3CCCCCCCCCC)cc(-c3nc4ccc(C)cc4n3CCCCCCCCCC)c2)nc2ccc(C)cc21
absorption maximum (in ClCCl): 307.5 nm

Structure (SMILES): CCOC(=O)c1cc(C(=O)OCC)c2ccc(C)cc2n1
absorption maximum (in CCO): 321 nm

Structure (SMILES): N#Cc1nn(-c2ccc(F)cc2)nc1N1CCCC1
absorption maximum (in CC#N): 340 nm

Structure (SMILES): COc1ccc(C2=[N+]3C(=Nc4c5c6ccccc6c6ccc(C(C)(C)C)cc6c5c(-c5ccc(OC)cc5)n4[B-]3(F)F)c3c2c2cc(C(C)(C)C)ccc2c2ccccc32)cc1
absorption maximum (in Cc1ccccc1): 716 nm

Structure (SMILES): CNc1ncc2nc(C#N)n(Cc3ccccc3)c2n1
absorption maximum (in C1COCCO1): 342 nm
absorption maximum (in CC#N): 342 nm
absorption maximum (in CO): 342 nm
absorption maximum (in ClCCl): 341 nm

Structure (SMILES): Cc1cc(-c2ccc(-c3nc4ccccc4[nH]3)cc2)ccc1-c1ccc(-c2nc3ccccc3[nH]2)cc1
absorption maximum (in CN(C)C=O): 330 nm

Structure (SMILES): O=C1c2ccc3c4c(Oc5ccccc5)cc5c6c(ccc(c7c(Oc8ccccc8)cc(c2c37)C(=O)N1c1ccc(O)cc1)c64)C(=O)N(c1ccc(O)cc1)C5=O
absorption maximum (in C1CCOC1): 513 nm
absorption maximum (in CN1CCCC1=O): 487 nm
absorption maximum (in CN(C)C=O): 495 nm

Structure (SMILES): Cc1cc(C)c2nc3c(=O)[nH]c(=O)[nH]c3nc2c1
absorption maximum (in CC#N): 350 nm

Structure (SMILES): CCCCCCn1c2ccccc2c2cc(-c3ccc(-c4cc(-c5ccccn5)nc(-c5ccccn5)c4)cc3)ccc21
absorption maximum (in ClCCl): 296 nm

Structure (SMILES): Oc1cccc(O)c1-c1c2ccc(=[N+]3CCCCC3)cc-2oc2cc(N3CCCCC3)ccc12
absorption maximum (in CCO): 557 nm

Structure (SMILES): Cc1cc2nc3c(=O)[nH]c(=O)n(C)c3nc2cc1C
absorption maximum (in CC#N): 379 nm

Structure (SMILES): CCN(CC)c1cc(NC(C)=O)c(/N=N/c2cc3c(=O)[nH][nH]c(=O)c3cc2[N+](=O)[O-])cc1OC
absorption maximum (in CC(=O)O): 556 nm
absorption maximum (in CN(C)C=O): 550 nm
absorption maximum (in CS(C)=O): 553 nm

Source: the Deep4Chem optical property database
